Assay results: patent US8273754B2, “Substituted 1H-pyrazolo[3,4-D]pyrimidine-6-amine compounds” (ArQule, Inc., priority 2008, dated 2012)
Read-outs that look alike come from different tables or passages of the source.

System: cancer cells
Assay: MTS cell growth inhibition assay (72 hours)
Format: cell-based
How it was run: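 Cells in DMEM with 1% FBS, seeded 18 h, then compound-treated 72 h at 37 °C. Viability by MTS/PMS for 4 h, formazan absorbance at 492 nm; IC50 taken as concentration giving 50% absorbance drop, activity banded by percent inhibition.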

[1] = Homo sapiens, DLD-1, 72 h, DLD-1 cells, read-out: DLD-1 MTS 72 hr at 10 μM
[2] = Homo sapiens, KATO III, 72 h, KATO III cells, read-out: KATO III MTS 72 hr at 10 μM
[3] = Homo sapiens, MDA-MB-231, 72 h, MDA-MB-231 cells, read-out: MDA-MB-231 MTS 72 hr at 10 μM
[4] = Homo sapiens, NCI-H1299, 72 h, NCI-H1299 cells, read-out: NCI-H1299 MTS 72 hr at 10 μM
[5] = PaCa-2, 72 h, PACA-2 cells, read-out: PACA-2 MTS 72 hr at 10 μM

Structure (SMILES) | inhibition at 10 µM [1] [%] | inhibition at 10 µM [2] [%] | inhibition at 10 µM [3] [%] | inhibition at 10 µM [4] [%] | inhibition at 10 µM [5] [%]
Nc1nc(NC2Cc3ccccc3N(Cc3cc(Cl)ccc3C(F)(F)F)C2)c2cn[nH]c2n1 (stereo not drawn) [Compound 163, N4-{1-[5-chloro-2-(trifluoromethyl)benzyl]-1,2,3,4-tetrahydroquinolin-3-yl}-1H-pyrazolo[3,4-d]pyrimidine-4,6-diamine] | > 79 | > 79 | > 79 | > 79 | > 79
N#Cc1cc(CN2CC(Nc3nc(N)nc4[nH]ncc34)Cc3ccccc32)ccc1F (stereo not drawn) [Compound 138, 5-({3-[(6-amino-1H-pyrazolo[3,4-d]pyrimidin-4-yl)amino]-3,4-dihydroquinolin-1(2H)-yl}methyl)-2-fluorobenzonitrile] | < 50 | < 50 | < 50 | < 50 | < 50
Nc1nc(NC2Cc3ccccc3N(S(=O)(=O)c3cccc(NC(=O)Nc4c(Cl)cccc4Cl)c3)C2)c2cn[nH]c2n1 (stereo not drawn) [Compound 208, 1-[3-({3-[(6-amino-1H-pyrazolo[3,4-d]pyrimidin-4-yl)amino]-3,4-dihydroquinolin-1(2H)-yl}sulfonyl)phenyl]-3-(2,6-dichlorophenyl)urea] | < 50 | < 50 | < 50 | < 50 | 50 to 79
Cc1ccc(F)c(CN2CC(Nc3nc(N)nc4[nH]ncc34)Cc3ccccc32)c1 (stereo not drawn) [Compound 135, N4-[1-(2-fluoro-5-methylbenzyl)-1,2,3,4-tetrahydroquinolin-3-yl]-1H-pyrazolo[3,4-d]pyrimidine-4,6-diamine] | > 79 | > 79 | 50 to 79 | 50 to 79 | > 79
Nc1nc(NC2Cc3ccccc3N(Cc3ccc(-c4ccccn4)cc3)C2)c2cn[nH]c2n1 (stereo not drawn) [Compound 143, N4-[1-(4-pyridin-2-ylbenzyl)-1,2,3,4-tetrahydroquinolin-3-yl]-1H-pyrazolo[3,4-d]pyrimidine-4,6-diamine] | < 50 | < 50 | < 50 | < 50 | < 50
Nc1nc(NC2CCN(S(=O)(=O)c3ccc(Cl)c(C(F)(F)F)c3)c3ccccc3C2)c2cn[nH]c2n1 (stereo not drawn) [Compound 170, N4-(1-{[4-chloro-3-(trifluoromethyl)phenyl]sulfonyl}-2,3,4,5-tetrahydro-1H-1-benzazepin-4-yl)-1H-pyrazolo[3,4-d]pyrimidine-4,6-diamine] | < 50 | > 79 | > 79 | < 50 | 50 to 79
Cn1cnc(S(=O)(=O)N2CC(Nc3nc(N)nc4[nH]ncc34)Cc3ccccc32)c1 (stereo not drawn) [Compound 38, N4-(1-(1-methyl-1H-imidazol-4-ylsulfonyl)-1,2,3,4-tetrahydroquinolin-3-yl)-1H-pyrazolo[3,4-d]pyrimidine-4,6-diamine] | < 50 | < 50 | < 50 | < 50 | < 50
Nc1nc(NC2Cc3ccccc3N(S(=O)(=O)c3cccc(NC(=O)Nc4ccc5c(c4)CCC5)c3)C2)c2cn[nH]c2n1 (stereo not drawn) [Compound 214, 1-[3-({3-[(6-amino-1H-pyrazolo[3,4-d]pyrimidin-4-yl)amino]-3,4-dihydroquinolin-1(2H)-yl}sulfonyl)phenyl]-3-(2,3-dihydro-1H-inden-5-yl)urea] | > 79 | > 79 | > 79 | 50 to 79 | > 79
Nc1nc(NC2CCN(S(=O)(=O)c3ccsc3)c3ccccc3C2)c2cn[nH]c2n1 (stereo not drawn) [Compound 167, N4-[1-(3-thienylsulfonyl)-2,3,4,5-tetrahydro-1H-1-benzazepin-4-yl]-1H-pyrazolo[3,4-d]pyrimidine-4,6-diamine] | < 50 | < 50 | < 50 | < 50 | < 50
Nc1nc(NC2Cc3ccccc3N(S(=O)(=O)c3ccc(NC(=O)Nc4ccc5c(c4)CCC5)cc3)C2)c2cn[nH]c2n1 (stereo not drawn) [Compound 193, 1-[4-({3-[(6-amino-1H-pyrazolo[3,4-d]pyrimidin-4-yl)amino]-3,4-dihydroquinolin-1(2H)-yl}sulfonyl)phenyl]-3-(2,3-dihydro-1H-inden-5-yl)urea] | 50 to 79 | > 79 | 50 to 79 | > 79 | > 79
N#Cc1cccc(CN2CC(Nc3nc(N)nc4[nH]ncc34)Cc3ccccc32)c1 (stereo not drawn) [Compound 145, 3-({3-[(6-amino-1H-pyrazolo[3,4-d]pyrimidin-4-yl)amino]-3,4-dihydroquinolin-1(2H)-yl}methyl)benzonitrile] | > 79 | > 79 | > 79 | > 79 | > 79
Nc1nc(NC2CCN(S(=O)(=O)c3ccc(F)c(Cl)c3)c3ccccc3C2)c2cn[nH]c2n1 (stereo not drawn) [Compound 181, N4-{1-[(3-chloro-4-fluorophenyl)sulfonyl]-2,3,4,5-tetrahydro-1H-1-benzazepin-4-yl}-1H-pyrazolo[3,4-d]pyrimidine-4,6-diamine] | < 50 | < 50 | < 50 | < 50 | 50 to 79
COc1ccccc1Oc1cccc(S(=O)(=O)N2CC(Nc3nc(N)nc4[nH]ncc34)Cc3ccccc32)c1 (stereo not drawn) [Compound 77, N4-(1-(3-(2-methoxyphenoxy)phenylsulfonyl)-1,2,3,4-tetrahydroquinolin-3-yl)-1H-pyrazolo[3,4-d]pyrimidine-4,6-diamine] | < 50 | 50 to 79 | < 50 | < 50 | < 50
Nc1nc(NC2Cc3ccccc3N(S(=O)(=O)c3ccc(Br)c(F)c3)C2)c2cn[nH]c2n1 (stereo not drawn) [Compound 62, N4-(1-(4-bromo-3-fluorophenylsulfonyl)-1,2,3,4-tetrahydroquinolin-3-yl)-1H-pyrazolo[3,4-d]pyrimidine-4,6-diamine] | < 50 | < 50 | < 50 | < 50 | < 50
Nc1nc(NC2Cc3ccccc3N(Cc3ccccc3Oc3ccccc3)C2)c2cn[nH]c2n1 (stereo not drawn) [Compound 149, N4-[1-(2-phenoxybenzyl)-1,2,3,4-tetrahydroquinolin-3-yl]-1H-pyrazolo[3,4-d]pyrimidine-4,6-diamine] | > 79 | 50 to 79 | < 50 | < 50 | < 50
Nc1nc(NC2Cc3ccccc3N(Cc3cn(-c4ccccc4)nc3-c3ccccc3)C2)c2cn[nH]c2n1 (stereo not drawn) [Compound 151, N4-{1-[(1,3-diphenyl-1H-pyrazol-4-yl)methyl]-1,2,3,4-tetrahydroquinolin-3-yl}-1H-pyrazolo[3,4-d]pyrimidine-4,6-diamine] | > 79 | > 79 | < 50 | < 50 | > 79
CC1(C)CCc2cc(CN3CC(Nc4nc(N)nc5[nH]ncc45)Cc4ccccc43)ccc2O1 (stereo not drawn) [Compound 147, N4-{1-[(2,2-dimethyl-3,4-dihydro-2H-chromen-6-yl)methyl]-1,2,3,4-tetrahydroquinolin-3-yl}-1H-pyrazolo[3,4-d]pyrimidine-4,6-diamine] | > 79 | > 79 | 50 to 79 | < 50 | > 79
Nc1nc(NC2CCN(S(=O)(=O)c3ccc(OC(F)(F)F)cc3)c3ccccc3C2)c2cn[nH]c2n1 (stereo not drawn) [Compound 185, N4-(1-{[4-(trifluoromethoxy)phenyl]sulfonyl}-2,3,4,5-tetrahydro-1H-1-benzazepin-4-yl)-1H-pyrazolo[3,4-d]pyrimidine-4,6-diamine] | < 50 | < 50 | < 50 | < 50 | < 50
Nc1nc(NC2CCN(S(=O)(=O)c3cccc(F)c3)c3ccccc3C2)c2cn[nH]c2n1 (stereo not drawn) [Compound 169, N4-{1-[(3-fluorophenyl)sulfonyl]-2,3,4,5-tetrahydro-1H-1-benzazepin-4-yl}-1H-pyrazolo[3,4-d]pyrimidine-4,6-diamine] | < 50 | < 50 | < 50 | < 50 | < 50
Cc1cc(C)c(S(=O)(=O)N2CCC(Nc3nc(N)nc4[nH]ncc34)Cc3ccccc32)c(C)c1 (stereo not drawn) [Compound 173, N4-[1-(mesitylsulfonyl)-2,3,4,5-tetrahydro-1H-1-benzazepin-4-yl]-1H-pyrazolo[3,4-d]pyrimidine-4,6-diamine] | < 50 | < 50 | < 50 | < 50 | < 50
Nc1nc(NC2Cc3ccccc3N(S(=O)(=O)c3cccc(NC(=O)Nc4cccc(F)c4)c3)C2)c2cn[nH]c2n1 (stereo not drawn) [Compound 219, 1-[3-({3-[(6-amino-1H-pyrazolo[3,4-d]pyrimidin-4-yl)amino]-3,4-dihydroquinolin-1(2H)-yl}sulfonyl)phenyl]-3-(3-fluorophenyl)urea] | > 79 | > 79 | > 79 | > 79 | > 79
